Assay results: patent publication US11007276B2, “Intracellular substance transport system and use thereof” (NATIONAL UNIVERSITY CORPORATION HOKKAIDO UNIVERSITY, priority 2016, dated 2021)

Tests used:
various glycosidases = settings: free small-molecule compounds; cited from earlier work
[1] = test system: MCF-7 breast cancer cells; test: Breast cancer cell killing action, viability by MTA/MTT assay (Cell Counting Kit-8); format: cell-based, human; settings: 100 μM cisplatin, MCF-7, 96 hours, microscopy
Procedure: Quantitation of dead cells by the MTA assay: MCF7 cells (5×10^3/100 μL/well) were incubated for 24 hours in a 37° C. and 5% CO2 atmosphere, and QD-anchored inhibitor 7 (1 μM, 10±L/MilliQ), QD control (1 μM, 10 μL/MilliQ), compound 7 (1 μM, 10 μL/MilliQ), and cisplatin (1 mM, 10 μL/MilliQ) were then respectively added per 90 μL of the medium and the final concentration was adjusted to 100 nM (but 100 μM for the cisplatin). At 96 hours after the start of culture, washing was performed 3 times with the medium component and 10 μL of the cell culture medium was recovered. Cell Counting Kit-8 solution (Dojindo, Kumamoto, Japan) was added; incubation was carried out for 1.5 hours in a 37° C. and 5% CO2 atmosphere; and the viable cell percentage was quantitated by measurement of the absorbance at 450 nm.
Quantitation of dead cells by the MTT assay: MCF-7 cells (5×10^4/[…]/well) were incubated for 24 hours in a 37° C. and 5% CO2 atmosphere, and QD-anchored inhibitor 15 (1 μM, 10 μL/MilliQ) was then respectively added per […] of the medium and the final concentration was adjusted to 100 nM (but 100 μM for the cisplatin). […]

HepG2 liver cancer cells [2] = test: Hepatocellular carcinoma killing effect, cell viability assay (Cell Counting Kit-8), 96 h coculture; format: cell-based, human
Procedure: HepG2 cells (5×10^4/[…]/well) were incubated for 24 hours in a 37° C. and 5% CO2 atmosphere, and compounds 7, 15, and 20 (10 μL of a solution brought to 1 μM by dissolution in MilliQ) were then respectively added per 90 μL of the medium and the final concentration was adjusted to 100 nM. At 96 hours after the start of coculture, washing was performed 3 times with the medium component and 10 μL of Cell Counting Kit-8 (Dojindo, Kumamoto, Japan) was added to the cell culture medium; incubation was carried out for 1.5 hours in a 37° C. and 5% CO2 atmosphere; and the viable cell percentage was quantitated by measurement of the absorbance at 450 nm. A 100 nM 5-fluorouracil solution (5-FU) was used as a control agent (FIG. 11).
With reference to the preceding experimental results (FIG. 11), an evaluation of the dose dependence and a determination of the IC50 value were performed for the antitumor effect of the inhibitor 7-bearing, phospholipid-coated fluorescent nanoparticles and the inhibitor 15-bearing, phospholipid-coated fluorescent nanoparticles, which had been confirmed to have a significant inhibitory activity on cancer cell growth versus the 5-FU comparative control agent. […]

[3] = test system: cultured cancer cells that express the target kinase group; settings: cultured cancer cells expressing the target kinase group; cited from earlier work
HepG2 cells = settings: Lin, L. et al., Cancer Res. 2006; cited from earlier work
HepG2 liver cancer cells [4] = test: Hepatocellular carcinoma killing action of sorafenib derivative 32, cell viability assay, 48 h coculture; format: cell-based; settings: Homo sapiens; HepG2, 48 hours, small molecule not carried on nanoparticles
Procedure: At 48 hours after the start of coculture, washing was performed 3 times with the medium component and 10 μL of Cell Counting Kit-8 (Dojindo, Kumamoto, Japan) was added to the cell culture medium; incubation was carried out for 1.5 hours in a 37° C. and 5% CO2 atmosphere; and the cancer cell viability was quantitated by measurement of the absorbance at 450 nm (FIG. 15).

SMILES: CC(=O)CCCC(=O)Nc1ccc(O[C@@H]2OC(CO)[C@@H](O)C(O)C2NC(C)=O)c(C(F)F)c1 (stereo partly drawn) [compound 7]
- native IC50 for various glycosidases in vitro (various glycosidases): on the order of mM

SMILES: N.N.[Cl][Pt][Cl] [cisplatin]
- floating dead cells with altered shapes [1]: floating dead cells with altered shapes were observed

SMILES: O=c1[nH]cc(F)c(=O)[nH]1 [5-FU, 5-fluorouracil]
- antitumor activity (HepG2 liver cancer cells [2]; 100 nM, HepG2, coculture for 96 hours): a significant antitumor activity was not observed
- IC50 (HepG2 liver cancer cells [2]; Homo sapiens, HepG2, 96 hours of coculture, 5 to 100 nM): > 0.1 µM

SMILES: CNC(=O)c1cc(Oc2ccc(NC(=O)Nc3ccc(Cl)c(C(F)(F)F)c3)cc2)ccn1 [sorafenib]
- IC50 [3]: 4.5 µM
- IC50 (HepG2 cells): 4.5 µM

SMILES: CC(=O)CCCCNC(=O)c1cc(Oc2ccc(NC(=O)Nc3ccc(Cl)c(C(F)(F)F)c3)cc2)ccn1 [compound 32]
- IC50 (HepG2 liver cancer cells [4]): 2.1 µM

SMILES: CC(=O)CCCC(=O)Nc1ccc(O[C@@H]2OC(CO)[C@H](O)C(O)C2O)c(C(F)F)c1 (stereo partly drawn) [compound 15]
- native IC50 for various glycosidases in vitro (various glycosidases): on the order of mM

SMILES: CC(=O)CCCC(=O)Nc1ccc(O[C@]2(C(=O)O)CC(O)[C@@H](NC(C)=O)C([C@H](O)[C@H](O)CO)O2)c(C(F)F)c1 (stereo partly drawn) [compound 20]
- native IC50 for various glycosidases in vitro (various glycosidases): on the order of mM
